{"source": "patent US9572786B2", "about": "“Use of capsiate or dihydrocapsidate” (Catholic University Industry Academy Cooperation Foundation, priority 2007, dated 2017)", "key": {"JNK": {"test_system": "JNK", "assay": "MAPK signaling in mouse skin tissue, Western blotting: JNK", "assay_type": "in vivo", "settings": "hairless mouse; UV+CPT vs UV with acetone only", "protocol": "In order to investigate the intracellular mechanism (signaling) related with the inhibition of COX-2 expression by capsiate, Western blotting was carried out for MAPK signaling-related proteins (ERK, p-ERK, p38, p-p38 and JNK, p-JNK) as in Example 2-2, using proteins isolated from the mouse skin tissue."}, "p38": {"test_system": "p38", "assay": "MAPK signaling after UV, Western blotting: p38", "assay_type": "cell-based, human", "settings": "HaCaT cells; 10, 25, 50 μM; 30 minutes after UV irradiation", "protocol": "Western blotting was performed in the same manner as in Example 2-1 in order to identify the factor that affects the COX-2 expression regulated by capsiate, except for treating the cells with capsiate at different concentrations (10 μM, 25 μM and 50 μM) prior to UV irradiation, and using rabbit anti-ERK antibody, rabbit anti-p-ERK antibody, rabbit anti-p38 antibody, rabbit anti-p-p38 antibody, rabbit anti-JNK antibody and rabbit anti-p-JNK antibody (cell signaling), and anti-rabbit IgG-HRP conjugation antibody (Zymed) as the secondary antibody, 30 minutes after UV irradiation."}, "hairless mouse": {"test_system": "hairless mouse", "assay": "Change of mouse skin tissue after UV, hematoxylin-eosin staining", "assay_type": "in vivo", "settings": "4 times of UV irradiation every other day at 2.5 kJ/m^2", "protocol": "When the skin is exposed to UV, erythema, or […] of the skin, occurs accompanied by edema, prior to a variety of cellular changes including inflammation, apoptosis, carcinogenesis, or the like [Tadashi Terui, Hachiro Tagami, Mediators of inflammation involved in UVB erythema, Journal of Dermatological Science 23 Suppl. 1 (2000) S1S5]. In order to investigate the effect of capsiate on erythema accompanied by UV-induced inflammatory response, experiment was carried out as follows using hairless mouse. Test groups were as follows: non-treated group—treated with acetone only without UV irradiation; test group A—treated with 200 μL of 1 mM capsiate dissolved in acetone without UV irradiation; UV group—treated with acetone and UV; test group B—treated with UV and 200 μL of 1 mM capsiate dissolved in acetone every 24 hours.\nAfter 4 times of UV irradiation every other day at an intensity of 2.5 kJ/m^2, hematoxylin-eosin staining was carried out in order to observe the change of mouse skin tissue."}, "T cells": {"test_system": "T cells", "assay": "Proliferation of T cells, thymidine (H3) incorporation", "assay_type": "cell-based, C57/BL6 mouse", "settings": "mouse spleen T cells; 25 uM; vs control group", "protocol": "T cells were isolated from mouse spleen in order to investigate the effect of capsiate on the proliferation of T cells. Specifically, the spleen of C57/BL6 mouse was taken out and pulverized as single cells. After lysing red blood cells using an RBC lysis buffer (Sigma, USA), other cells were washed 3 times using cell culture medium (RPMI 1640 complete medium). The cell culture medium is prepared by adding 10% FBS, 10 mM HEPES, 100 μg/mL penicillin, 100 μg/mL streptomycin, 2 mM L-glutamine, 1 mM sodium pyruvate and 50 uM 2-mercaptoethanol. From the cells, only the T cells were separated using a T cell enrichment column (R&D, USA).\n5×10^5 of the isolated T cells were placed on a 96-well plate and capsiate was treated at a concentration of 25 uM. Proliferation of T cells was induced by adding 0.1 μg/mL α-CD3a and 2 μg/mL α-CD28, or 1 μg/mL α-CD3a and 2 μg/mL α-CD28. The degree of cell proliferation was compared to that of the control group which was not treated with capsiate. Specifically, after culturing the T cells for 24 hours, thymidine (H3) was added at a concentration of 1 uCi per well and the T cells were harvested 16 hours later using a membrane filter (Skatron, England) and a cell harvester. The harvested T cells were lysed in LSC cocktail solution (Ultima Gold, PerkinElmer, USA) and H3's CPM value was measured using a beta counter (Packard, USA)."}, "MMP-9": {"test_system": "MMP-9", "assay": "UV-induced MMP-9 mRNA expression, RT-PCR", "assay_type": "cell-based, human", "settings": "HaCaT cells; 10, 25, 50 μM; UV 100 J/m^2; 36 hours", "protocol": "The inhibition effect of capsiate on the expression of MMP-2 and MMP-9, which induce angiogenesis, was investigated through measurement of mRNA expression by RT-PCR and protein expression and activity measurement by zymography.\nIn order to investigate the inhibition effect of capsiate on MMP expression, 5×10^5 HaCaT cells were placed on a 60 mm Petri dish and cultured for 24 hours in DMEM containing 10% FBS. Subsequently, the cells were cultured for 24 hours in DMEM containing 1% FBS until starvation. Then, after treating with capsiate at different concentrations (10 μM, 25 μM, 50 μM) for 30 minutes, followed by washing 3 times with PBS, UV was irradiated at an intensity of 100 J/m^2. Immediately after the UV irradiation, the cells were washed again with PBS and further cultured for 36 hours in DMEM containing 1% FBS, which was treated with capsiate at the same concentration as in the pre-treatment. The degree of intracellular mRNA expression for MMP-2 and MMP-9 was measured by RT-PCR in the same manner as in Example 3. The degree of MMP expression was compared with that of the non-treated group."}, "IL-6": {"test_system": "IL-6", "assay": "UV-induced IL-6 mRNA in hairless mouse skin, RT-PCR", "assay_type": "in vivo", "settings": "200 μL of 1 mM topically 1 hour before UV 5 kJ/m^2 once, 6 hours later", "protocol": "In order to investigate the effect of capsiate on the production of IL-6 and TNF-α induced in skin tissue during inflammatory response, the inhibition ability of capsiate against the expression of the pro-inflammatory cytokines was evaluated in animal model as follows. Test groups were as follows: non-treated group—treated with acetone only without UV irradiation; test group A—treated with 200 μL of 1 mM capsiate dissolved in acetone without UV irradiation; UV group—treated with acetone and UV; test group B—treated with 200 μL of 1 mM capsiate dissolved in acetone followed by UV irradiation 1 hour later.\nTo this end, acetone and capsiate were treated prior to UV irradiation. After treating with UV once at an intensity of 5 kJ/m^2, hairless mouse was euthanized 6 hours later. mRNA was extracted from the mouse tissue obtained by skin biopsy and RT-PCR was carried out as follows. For RNA extraction from the tissue, each mouse tissue obtained by skin biopsy was quickly frozen in liquid nitrogen and ground finely using a mortar. RNA was extracted from the mouse tissue using Trizol (Invitrogen, USA), and PCR (PTC-225 Peltier thermal cycler, MJ Research, USA) was carried out using it as template and using a commercial kit (reverse transcription system, Qiagen, USA). As a result, cDNA was prepared from each group. […]"}}}
{"smiles": "COc1cc(COC(=O)CCCC/C=C/C(C)C)ccc1O", "note": "[capsiate]", "values": [{"measurement": "JNK (phosphorylation) in mouse skin tissue", "setting": "JNK", "result": "no significant difference"}, {"measurement": "p38 (phosphorylation)", "setting": "p38", "result": "no particular change"}, {"measurement": "thickness of the epidermis (hematoxylin-eosin staining)", "setting": "hairless mouse", "result": "less thick"}, {"measurement": "proliferation of T cells induced by α-CD3a and α-CD28", "setting": "T cells", "result": "significant inhibition"}, {"measurement": "UV-induced mRNA expression of MMP-9", "setting": "MMP-9", "result": "decreased"}, {"measurement": "UV-induced expression of IL-6 (mRNA) in skin tissue", "setting": "IL-6", "result": "decrease"}]}
